The numbers were not newly measured in patent publication US10456335B2, “Oral hygiene compositions and methods” (Carson Laboratories, I.P., Inc., priority 2008, dated 2019), which cites them from elsewhere.

For this series the following is noted: eight hour time weighted average.

As to `OO` [hydrogen peroxide], the “OSHA permissible exposure limit” value is given as 1 ppm.
